Inhibition and Ki data for 18 molecules are collected here from patent US8791132B2, “Compounds and methods for treatment of hypertension” (Medivation Technologies, Inc., priority 2011, dated 2014).

SMILES strings stand for the structures. Like-named read-outs stand apart in the source and are kept apart here.

Assay [1] has as its target T1, human recombinant adrenergic α2A receptor (Homo sapiens, UniProt P08913).
T1 construct: expressed in transfected cells; host or cells: insect Sf9 cells
T1 sequence (P08913 1-465): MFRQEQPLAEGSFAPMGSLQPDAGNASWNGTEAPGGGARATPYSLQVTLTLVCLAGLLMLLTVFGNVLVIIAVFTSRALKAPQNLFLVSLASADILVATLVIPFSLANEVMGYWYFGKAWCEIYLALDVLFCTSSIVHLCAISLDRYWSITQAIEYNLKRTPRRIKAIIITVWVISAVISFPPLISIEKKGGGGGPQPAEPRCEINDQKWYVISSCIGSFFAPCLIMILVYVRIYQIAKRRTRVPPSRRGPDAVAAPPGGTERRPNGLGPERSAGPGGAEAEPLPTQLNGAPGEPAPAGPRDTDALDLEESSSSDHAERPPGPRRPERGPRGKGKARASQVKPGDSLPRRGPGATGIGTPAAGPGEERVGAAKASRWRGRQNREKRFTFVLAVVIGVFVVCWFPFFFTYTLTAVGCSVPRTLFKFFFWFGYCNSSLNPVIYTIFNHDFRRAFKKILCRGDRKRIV
The experiment in a line: Radioligand binding, adrenergic α2A ([3H]MK-912). Put shortly:
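Displacement of 1 nM [3H]MK-912 from receptor produced in insect Sf9 cells was measured after 60 min at 25 °C. Readout: percent inhibition of specific binding.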

In assay [2] the target is T2, human recombinant adrenergic α2B receptor (Homo sapiens, UniProt P18089).
T2 construct: expressed in transfected cells; host or cells: CHO-K1
T2 sequence (P18089 1-450): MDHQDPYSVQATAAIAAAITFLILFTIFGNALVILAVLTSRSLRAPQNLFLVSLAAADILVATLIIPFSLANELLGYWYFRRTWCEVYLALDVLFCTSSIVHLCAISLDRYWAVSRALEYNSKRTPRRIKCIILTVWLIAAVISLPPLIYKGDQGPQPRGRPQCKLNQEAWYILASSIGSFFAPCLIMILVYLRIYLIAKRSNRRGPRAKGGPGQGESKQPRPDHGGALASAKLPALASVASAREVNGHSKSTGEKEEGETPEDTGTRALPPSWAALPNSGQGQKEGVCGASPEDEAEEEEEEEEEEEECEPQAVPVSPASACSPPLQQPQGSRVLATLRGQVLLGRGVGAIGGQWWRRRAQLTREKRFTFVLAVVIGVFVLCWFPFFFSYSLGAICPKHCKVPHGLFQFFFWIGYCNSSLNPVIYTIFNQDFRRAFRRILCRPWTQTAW
The experiment in a line: Radioligand binding, adrenergic α2B ([3H]Rauwolscine). Summed up: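 Readout: percent inhibition of specific [3H]Rauwolscine binding, measured by filtration and counting. Conditions: CHO-K1 cell-expressed receptor, 2.5 nM radioligand, 60 min, 25° C, Tris-HCl pH 7.4 buffer with MgCl2, EDTA, BSA. Non-specific binding: 10 μM Prazosin.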

The target of assay [3] is T3, rat adrenergic α1B receptor (Rattus norvegicus, UniProt P15823).
T3 construct: rat adrenergic α1B receptor obtained from Wistar Rat liver; from tissue; host or cells: Wistar rat liver
T3 sequence (P15823 1-515): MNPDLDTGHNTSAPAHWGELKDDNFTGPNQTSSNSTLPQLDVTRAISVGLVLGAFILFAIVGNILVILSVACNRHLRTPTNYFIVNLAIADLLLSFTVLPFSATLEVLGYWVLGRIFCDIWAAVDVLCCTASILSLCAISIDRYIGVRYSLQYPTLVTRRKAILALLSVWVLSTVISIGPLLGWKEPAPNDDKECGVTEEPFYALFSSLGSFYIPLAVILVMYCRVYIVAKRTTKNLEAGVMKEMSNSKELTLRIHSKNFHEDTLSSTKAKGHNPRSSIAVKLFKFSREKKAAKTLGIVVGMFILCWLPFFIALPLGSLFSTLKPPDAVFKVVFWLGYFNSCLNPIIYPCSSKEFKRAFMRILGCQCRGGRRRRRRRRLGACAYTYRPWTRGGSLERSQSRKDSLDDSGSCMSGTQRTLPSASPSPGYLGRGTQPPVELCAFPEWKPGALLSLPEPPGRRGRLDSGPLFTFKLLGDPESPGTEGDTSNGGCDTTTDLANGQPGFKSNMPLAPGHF
Description: Radioligand binding, adrenergic α1B ([3H]Prazosin). Put shortly:
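Rat α1B receptor from Wistar rat liver was incubated with 0.25 nM [3H]prazosin for 60 min at 25 °C in 50 mM Tris-HCl, pH 7.4, 0.5 mM EDTA. Non-specific binding was defined with 10 μM phentolamine. Bound radioligand was measured by filtration and counting, reported as percent inhibition of specific binding.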

For assay [4], the target named is T4, human recombinant adrenergic α1D receptor (Homo sapiens, UniProt P25100).
T4 construct: expressed in transfected cells; host or cells: HEK-293
T4 sequence (P25100 1-572): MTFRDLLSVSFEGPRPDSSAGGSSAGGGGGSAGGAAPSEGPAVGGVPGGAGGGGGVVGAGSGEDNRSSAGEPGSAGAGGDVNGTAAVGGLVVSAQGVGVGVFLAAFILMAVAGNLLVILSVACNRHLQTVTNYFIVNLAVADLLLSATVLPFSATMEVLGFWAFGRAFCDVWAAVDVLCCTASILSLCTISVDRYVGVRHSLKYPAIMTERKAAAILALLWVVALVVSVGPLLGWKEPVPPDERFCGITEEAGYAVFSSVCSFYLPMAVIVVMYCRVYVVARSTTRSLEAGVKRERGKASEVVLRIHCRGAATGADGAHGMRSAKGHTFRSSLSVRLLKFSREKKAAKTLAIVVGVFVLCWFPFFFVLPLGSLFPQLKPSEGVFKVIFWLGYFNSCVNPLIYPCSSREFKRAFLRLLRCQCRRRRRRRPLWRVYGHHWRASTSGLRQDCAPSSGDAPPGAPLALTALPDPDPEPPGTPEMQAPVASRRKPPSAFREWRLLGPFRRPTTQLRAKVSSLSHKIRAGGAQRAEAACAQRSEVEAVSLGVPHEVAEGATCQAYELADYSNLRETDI
Description: Radioligand binding, adrenergic α1D ([3H]Prazosin). As for the experimental part:
Compounds were incubated with 0.6 nM [3H]Prazosin for 60 min at 25° C. Non-specific binding was estimated in the presence of 10 μM phentolamine. Receptor proteins were filtered and washed, the filters were then counted to determine [3H]Prazosin specifically bound. […] Biochemical assay results are presented as the percent inhibition of specific binding in Table B1.

The mark [5] stands for this setting: read-out: Percentage inhibition of ligand binding, Adrenergic α2A (0.1 μM), compound at 0.1 μM, [3H]MK-912, repeat datapoints each shown.
Setting [6] is: read-out: Percentage inhibition of ligand binding, Adrenergic α2B (0.1 μM), compound at 0.1 μM, [3H]Rauwolscine, repeat datapoints each shown.
Where [7] appears, read: read-out: Percentage inhibition of ligand binding, Adrenergic α1B (0.1 μM), compound at 0.1 μM, [3H]Prazosin, repeat datapoints each shown.
[8] abbreviates: read-out: Percentage inhibition of ligand binding, Adrenergic α1D (0.1 μM), compound at 0.1 μM, [3H]Prazosin, repeat datapoints each shown.
The mark [9] stands for this setting: 0.1 μM compound, read-out: Percentage inhibition of ligand binding, Adrenergic α2A.
Where [10] appears, read: 0.1 μM compound, read-out: Percentage inhibition of ligand binding, Adrenergic α2B.
[11] abbreviates: 0.1 μM compound, read-out: Percentage inhibition of ligand binding, Adrenergic α1B.
Where [12] appears, read: 0.1 μM compound, read-out: Percentage inhibition of ligand binding, Adrenergic α1D.

For the molecule `C/C(=C\n1c2c(c3cc(C)cnc31)CN(C)CC2)c1ccncc1` [compound 124], the inhibition at 0.1 µM was -2% in assay [1] (setting [5]), 63% in assay [2] (setting [6]), 19% in assay [3] (setting [7]) and 12% in assay [4] (setting [8]).
For the molecule `C/C(=C\n1c2c(c3cc(C)ccc31)CN(C)CC2)c1ccc(CO)nc1` [compound 125, (E)-(5-(1-(2,8-dimethyl-3,4-dihydro-1H-pyrido[4,3-b]indol-5(2H)-yl)prop-1-en-2-yl)pyridin-2-yl)methanol], the inhibition at 0.1 µM in assay [1] (setting [5]) is -4%; in assay [2] (setting [6]) it was 68%; in assay [3] (setting [7]) it was -3%; in assay [4] (setting [8]), 1%.
For `C/C(=C/n1c2c(c3cc(C)ccc31)CCN(C)CC2)c1ccc(Cl)cc1Cl` [compound 226] the same measures were 85%, 83%, 88% and 48%.
As for `C/C(=C\n1c2c(c3cc(C)cc(C)c31)CN(C)CC2)c1cccc(S(C)(=O)=O)c1` [compound 310], the inhibition at 0.1 µM was 69% in assay [1] (setting [9]), 87% in assay [2] (setting [10]), 63% in assay [3] (setting [11]) and 47% in assay [4] (setting [12]).
`CSc1cccc(/C(C)=C/n2c3c(c4cc(Cl)ccc42)CN(C)CC3)c1` [compound 295]: the inhibition at 0.1 µM came out at 69% in assay [1] (setting [9]), 79% in assay [2] (setting [10]), 15% in assay [3] (setting [11]) and 7% in assay [4] (setting [12]).
On to `Cc1ccc2c(c1)c1c(n2CC(=O)c2ccc(F)cc2)CCN(C)C1` [compound 94], for which the inhibition at 0.1 µM in assay [1] (setting [5]) is 11%; in assay [2] (setting [6]), 66%; in assay [3] (setting [7]), 40%; in assay [4] (setting [8]), 10%.
For the molecule `Cc1ccc2c(c1)c1c(n2/C=C/c2cnc3ccccc3c2)CCN(C)C1` [compound 323], the inhibition at 0.1 µM was found to be 92% in assay [1] (setting [9]), 95% in assay [2] (setting [10]), 85% in assay [3] (setting [11]) and 69% in assay [4] (setting [12]).
`Cc1ccc2c(c1)c1c(n2/C=C(\F)c2ccncc2)CCN(C)C1` [compound 105]: the inhibition at 0.1 µM in assay [1] (setting [5]) worked out at 14%; in assay [2] (setting [6]), 68%; in assay [3] (setting [7]), 57%; in assay [4] (setting [8]), 36%.
`Cc1ccc2c(c1)c1c(n2C=C(c2ccccc2)c2ccccc2)CCN(C)C1` [compound 267]: the inhibition at 0.1 µM in assay [1] (setting [9]) was determined as 63%; in assay [2] (setting [10]), 85%; in assay [3] (setting [11]) it was 7%; in assay [4] (setting [12]), 26%.
The like results for `C/C=C(/c1ccccc1)n1c2c(c3cc(C)ccc31)CN(C)CC2` [compound 262] were, in that order, 87%, 74%, 52% and 35%.
On to `C/C(=C\n1c2c(c3cc(C)ccc31)CCN(C)C2C)c1ccccc1F` (stereo not shown) [compound 96], for which the inhibition at 0.1 µM stood at 29% in assay [1] (setting [5]), 71% in assay [2] (setting [6]), 25% in assay [3] (setting [7]) and 3% in assay [4] (setting [8]).
`Cc1ccc2c(c1)c1c(n2CC(C)(C)c2ccncc2)CCN(C)C1` [compound 260]: the inhibition at 0.1 µM in assay [1] (setting [9]) is 54%; in assay [2] (setting [10]) it was 92%; in assay [3] (setting [11]), 45%; in assay [4] (setting [12]) it was 26%.
As for `Cc1ccc2c(c1)c1c(n2CCc2csc3ccccc23)CCN(C)C1` [compound 294, 5-(2-benzo[b]thiophen-3-yl-ethyl)-2,8-dimethyl-2,3,4,5-tetrahydro-1H-pyrido[4,3-b]indole], the inhibition at 0.1 µM in assay [1] (setting [9]) was found to be 94%; in assay [2] (setting [10]), 41%; in assay [3] (setting [11]), 76%; in assay [4] (setting [12]), 39%.
In the case of `CN1CCc2c(c3cc(Cl)ccc3n2CCc2ccccc2)C1` [compound 207], in assay [1], the inhibition constant Ki worked out at 1.16 nM. Besides, the results for the inhibition at 0.1 µM in assay [1] (setting [5]) and in assay [2] (setting [6]) were 90% and 106%, respectively. The inhibition at 0.03 µM worked out at 49% in assay [3] (read-out: Percentage inhibition of ligand binding, Adrenergic α1B (0.03 μM), compound at 0.03 μM, [3H]Prazosin, repeat datapoints each shown) and 39% in assay [4] (read-out: Percentage inhibition of ligand binding, Adrenergic α1D (0.03 μM), compound at 0.03 μM, [3H]Prazosin, repeat datapoints each shown).
Consider `C/C(=C\n1c2c(c3cc(C)ccc31)CN(C)CC2)c1ccc2c(ccn2C)c1` [compound 283], for which the inhibition at 0.1 µM in assay [1] (setting [9]) amounted to 90%; in assay [2] (setting [10]) it was 89%; in assay [3] (setting [11]), 63%; in assay [4] (setting [12]) it was 46%.
As to `C/C(=C\n1c2c(c3cc(Cl)ccc31)CN(C)C(C)C2)c1ccc(C)nc1` (stereo not shown) [compound 257], the inhibition at 0.1 µM came out at 84% in assay [1] (setting [9]), 100% in assay [2] (setting [10]), 51% in assay [3] (setting [11]) and 24% in assay [4] (setting [12]).
For `C/C(=C\n1c2c(c3cc(C)ccc31)CN(C)CC2)c1ccc2cnccc2c1` [compound 311] the same measures were 91%, 97%, 87% and 79%.
Take `Cc1ccc2c(c1)c1c(n2CC(O)(c2ccccc2)c2ccccc2)CCN(C)C1` [compound 263]: the inhibition at 0.1 µM in assay [1] (setting [9]) stood at 61%; in assay [2] (setting [10]), 54%; in assay [3] (setting [11]) it was 1%; in assay [4] (setting [12]), 6%.
